# Reference: ChEMBL document CHEMBL1124317, “Rationale for the synthesis and preliminary biological evaluation of highly active new antitumor nitrosoureido sugars” (J Med Chem, 1989)
# Key:
# Assay type in all cases: functional
# Mus musculus [1] = assay: The number of L1210 leukemia mice survived after 60 days with compound injected by a dose of 5 mg/kg intraperitoneally; 2/10; conditions: route intraperitoneal
# Mus musculus [2] = assay: Median survival time of the non surviving mice; treated with 2.5 mg/kg of compound to mice with L1210 leukemia; 11-14
# Mus musculus [3] = assay: The number of L1210 leukemia mice survived after 60 days with compound injected by a dose of 2.5 mg/kg intraperitoneally; 0/8; conditions: route intraperitoneal
# Mus musculus [4] = assay: The number of L1210 leukemia mice survived after 60 days with compound injected by a dose of 10 mg/kg intra peritoneally; 8/8
# Mus musculus [5] = assay: Median survival time of the non surviving mice; treated with 0.625 mg/kg of compound to mice with L1210 leukemia; 10-12
# Mus musculus [6] = assay: The number of B16 Melanocarcinoma mice survived after 30 days with compound injected by a dose of 20 mg/kg intraperitoneally; 10/10; conditions: route intraperitoneal
# Mus musculus [7] = assay: Anti tumor activity in olive oil when treated to mice with B16 melanocarcinoma with 20 mg/kg dose of compound intraperitoneally was expressed as percent of treated to control (T/C %); conditions: route intraperitoneal
# Mus musculus [8] = assay: Anti tumor activity l when treated to mice with L1210 leukemia with 0.625 mg/kg dose of compound intraperitoneally was expressed as percent of treated to control (T/C %); conditions: route intraperitoneal
# Mus musculus [9] = assay: The number of Lewis lung mice survived after 30 days with compound in olive oil injected by a dose of 20 mg/kg intraperitoneally; 20/20; conditions: route intraperitoneal
# Mus musculus [10] = assay: The number of B16 melanocarcinoma mice survived after 60 days with compound in olive oil injected by a dose of 20 mg/kg intraperitoneally; 3/20; conditions: route intraperitoneal
# [11] = Mortality range of the mice with L1210 leukemia treated with 20 mg/kg of dose intraperitoneally with no of mice survived/no of mice treated; 0/10; conditions: route intraperitoneal
# Mus musculus [12] = assay: Median survival time of the non surviving mice; treated with 5 mg/kg of compound to mice with L1210 leukemia; 11-32
# Mus musculus [13] = assay: The number of L1210 leukemia mice survived after 60 days with compound injected by a dose of 30 mg/kg intraperitoneally; 9/10; conditions: route intraperitoneal
# Mus musculus [14] = assay: The number of L1210 leukemia mice survived after 30 days with compound injected by a dose of 2.5 mg/kg intraperitoneally; 0/10; conditions: route intraperitoneal
# [15] = Mortality range of the mice with L1210 leukemia treated with 0.625 mg/kg of dose intraperitoneally with no of mice survived/no of mice treated; 0/8; conditions: route intraperitoneal
# Mus musculus [16] = assay: Median survival time of the non surviving mice; treated with 20 mg/kg of compound in olive oil to mice with L1210 leukemia tumor; […]
# [17] = Ratio of mice died to that of mice treated with 5 mg/kg of compound in aqueous solution intraperitoneally with L1210 leukemia; 0/10; conditions: route intraperitoneal
# [18] = Mortality range of the mice with B16 Melanocarcinoma treated with 5 mg/kg of dose intraperitoneally with no of mice survived/no of mice treated; 0/10; conditions: route intraperitoneal
# [19] = Mortality range of the mice with L1210 leukemia treated with 5 mg/kg of dose intraperitoneally with no of mice survived/no of mice treated; 0/8; conditions: route intraperitoneal
# Mus musculus [20] = assay: The number of L1210 leukemia mice survived after 30 days with compound injected by a dose of 5 mg/kg intraperitoneally; 3/10; conditions: route intraperitoneal
# Mus musculus [21] = assay: Median survival time of the non surviving mice; treated with 20 mg/kg of compound in olive oil to mice with B16 Melanocarcinoma; 12-47
# [22] = Ratio of mice died to that of mice treated with 20 mg/kg of compound in olive oil intraperitoneally with B16 Melanocarcinoma; 0/20; conditions: route intraperitoneal
# Mus musculus [23] = assay: The number of L1210 leukemia mice survived after 30 days with compound injected by a dose of 0.625 mg/kg intraperitoneally; 0/8; conditions: route intraperitoneal
# [24] = Mortality range of the mice with B16 Melanocarcinoma treated with 10 mg/kg of dose intraperitoneally with no of mice survived/no of mice treated; 0/10; conditions: route intraperitoneal
# [25] = Mortality range of the mice with L1210 leukemia treated with 1.25 mg/kg of dose intraperitoneally with no of mice survived/no of mice treated; 0/8; conditions: route intraperitoneal
# [26] = Mortality range of the mice with L1210 leukemia treated with 5 mg/kg of dose intraperitoneally with no of mice survived/no of mice treated; 0/10; conditions: route intraperitoneal
# Mus musculus [27] = assay: The number of L1210 leukemia mice survived after 30 days with compound injected by a dose of 30 mg/kg intraperitoneally; 9/10; conditions: route intraperitoneal
# Mus musculus [28] = assay: The number of Lewis lung mice survived after 60 days with compound in olive oil injected by a dose of 20 mg/kg intraperitoneally; 18/20; conditions: route intraperitoneal
smiles,measurement,setting,value
CO[C@@H]1C[C@@H](NC(=O)N(CCCl)N=O)[C@H](O)[C@@H](CO)O1 [ECOMUSTINE],Survivals,Mus musculus [1],2
same,Median survival time,Mus musculus [2],12.9
same,Survivals,Mus musculus [3],0
same,Survivals,Mus musculus [4],8
same,Median survival time,Mus musculus [5],11.25
same,Survivals,Mus musculus [6],10
same,T/C,Mus musculus [7],239%
same,T/C,Mus musculus [8],125%
same,Survivals,Mus musculus [9],20
same,Survivals,Mus musculus [10],3
same,Ratio,[11],0
same,Median survival time,Mus musculus [12],15.4
same,Survivals,Mus musculus [13],9
same,Survivals,Mus musculus [14],0
same,Ratio,[15],0
same,Median survival time,Mus musculus [16],57.5
same,Ratio,[17],0
same,Ratio,[18],0
same,Ratio,[19],0
same,Survivals,Mus musculus [20],3
same,Median survival time,Mus musculus [21],33.33
same,Ratio,[22],0
same,Survivals,Mus musculus [23],0
same,Ratio,[24],0
same,Ratio,[25],0
same,Ratio,[26],0
same,Survivals,Mus musculus [27],9
same,Survivals,Mus musculus [28],18
